“Also recorded” adds a separate entry of the source.
What was measured:
isocitrate dehydrogenase = target: T1, isocitrate dehydrogenase (Sus scrofa, UniProt P33198); test: Effect of complexing agents and other assay components on isocitrate dehydrogenase activity and its lead inhibition; type: biochemical, pig
T1 construct: purchased Sigma, St. Louis, Mo; ICD Type VI
T1 sequence (P33198 9-421): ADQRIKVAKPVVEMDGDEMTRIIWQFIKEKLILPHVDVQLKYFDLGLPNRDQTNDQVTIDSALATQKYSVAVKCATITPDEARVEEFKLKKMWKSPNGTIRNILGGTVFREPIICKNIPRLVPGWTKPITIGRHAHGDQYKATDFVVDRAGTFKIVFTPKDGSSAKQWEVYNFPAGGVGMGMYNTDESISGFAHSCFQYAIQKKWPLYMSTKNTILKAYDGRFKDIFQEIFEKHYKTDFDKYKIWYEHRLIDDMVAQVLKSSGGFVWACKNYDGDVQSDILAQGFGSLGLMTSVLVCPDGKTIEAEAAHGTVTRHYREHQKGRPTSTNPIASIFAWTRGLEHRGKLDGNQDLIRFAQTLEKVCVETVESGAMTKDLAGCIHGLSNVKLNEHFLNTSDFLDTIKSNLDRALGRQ
Source text: Any agent used for displacing lead from the EDTA complex must not interfere with the function or activity of the enzyme employed for detection. […] Other auxiliary complexing agents may also be useful, including iminodiacetate, citrate and lithium ion. Li^+1 is known to weaken lead ion binding to bovine serum albumin and is contemplated to be effective in displacing Pb^2+ from the complex.
To solve this problem, the inventors have employed strong chelating reagents to sequester lead ion from interfering blood proteins subsequent to release of the lead from the selected chelating reagent.

alcohol dehydrogenase = system: alcohol dehydrogenase
Description: A bioelectrode was prepared from colloidal gold adsorbed alcohol dehydrogenase according the procedure of Example 2 for ICD. Measurements were made in the microcell as described in Example 1 using various concentrations of mercury.

[1] = colloidal gold/ADH bioelectrode

| Compound | effect on ICDH activity / lead inhibition of ICDH (isocitrate dehydrogenase) | further results |
| --- | --- | --- |
| CC(=O)O [acetate] | the activity, stability and lead inhibition are not adversely affected |  |
| O=C(O)[C@@H](S)[C@@H](S)C(=O)O [DMSA, meso 2,3-dimercaptosuccinic acid] | do not interfere with electrochemical detection of lead by ICDH inhibition; also recorded: the activity, stability and lead inhibition are not adversely affected |  |
| O=C(O)CN(CCN(CC(=O)O)CC(=O)O)CC(=O)O [EDTA] | adversely affect lead ion inhibition of isocitric dehydrogenase |  |
| [Mg+2] [Mg^+2] |  | effectiveness as cofactor of isocitric dehydrogenase (isocitrate dehydrogenase; compared with Mn2+, millimolar concentrations): equally effective |
| c1cnc2c(c1)ccc1cccnc12 [o-phenanthroline] | do not interfere with electrochemical detection of lead by ICDH inhibition; also recorded: the activity, stability and lead inhibition are not adversely affected |  |
| c1ccc(-c2ccccn2)nc1 [dipyridyl] | the activity, stability and lead inhibition are not adversely affected |  |
| mercury ion |  | detection range (alcohol dehydrogenase; colloidal gold adsorbed ADH biosensor): nanomolar range; amperometric response (alcohol dehydrogenase; [1]): linear response in at nanomolar levels; reversibility of inhibition (alcohol dehydrogenase; [1]): irreversible; specificity of inhibition (alcohol dehydrogenase; in the presence of added lead ion): specific for mercury in the presence of added lead ion |
| C[n+]1c2ccccc2nc2ccccc21 [NMP-MS, N-methylphenazine methosulfate] | interfered with inhibition of the enzyme by added lead ion |  |
| c1ccc(-c2ccccc2)cc1 [biphenyl] | do not interfere with electrochemical detection of lead by ICDH inhibition |  |

Source: patent US5368707A, “Convenient determination of trace lead in whole blood and other fluids” (priority 1993, dated 1994)
